Data from patent publication US8697123B2, “Medication on the basis of 3,3′-diindolylmethane (DIM) with high-bioavailability and its use in treatment of human hyperplastic and inflammatory diseases” (Zakrytoye akstionernoye obschestvo “VELES FARMA”, priority 2010, dated 2014).

What was measured:
[1] = design: species or system rats; conditions: rat, in vivo, 200 mg/kg
Method: Concentration of 3,3′-diindolylmethane (μg/ml) in the Blood Plasma of Experimental Animals Given 200.0 mg/kg of 3,3′-diindolylmethane Substance Intrastomachically.
The results of measurements of 3,3′-diindolylmethane substance concentration in the blood plasma of rats given the substance intrastomachically are shown in Table 1.
3,3′-diindolylmethane Concentration (μg/ml) in the Blood Plasma of Experimental Animals Given […] of High-Bioavailability 3,3′-diindolylmethane Intrastomachically.
The results of measurements of 3,3′-diindolylmethane substance concentration in the blood plasma of rats given the substance intrastomachically are shown in Table 2.

[2] = Clinical efficiency of DIM-HB and crystalline DIM in equal doses; type: in vivo, human
Excerpt: All classical studies compared the efficiencies of DIM-HB and crystalline DIM in equal doses.
These differences are probably attributed to effective therapeutic DIM concentrations reached in the peripheral blood and target tissues in response to DIM-HB treatment.

[3] = DIM concentration in patients' blood plasma; type: in vivo, human; conditions: dose 100 mg
Excerpt: Study of DIM Concentration in Patients' Blood Plasma These differences are probably attributed to effective therapeutic DIM concentrations reached in the peripheral blood and target tissues in response to DIM-HB treatment.

maximum concentration in the system blood flow [1]: 0.13 to 0.17 µg/mL
minimum concentration 12 hours after administration [1]: less than 0.03 μg/ml
time at which the maximum concentration was observed [1]: about 1 hour
DIM concentration in the plasma [3]: 20 to 30 ng/mL
Compound: c1ccc2c(Cc3c[nH]c4ccccc34)c[nH]c2c1 [Crystalline DIM, 3,3′-diindolylmethane]
dynamics in all study groups of patients in response to treatment [2]: no dynamics at all
